System: rabbit skeletal myofibrils (fast skeletal myofibrils)
Assay: Activation of fast skeletal myofibrils (PUMA assay, PK/LDH-coupled ATPase at pCa25)
Type: biochemical
Conditions: AC1.4 determined according to the procedure of Example 39; reported as class symbols
Method in brief: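 Detergent-washed rabbit psoas myofibrils (~90% fast fibres, calcium-regulated) assayed at calcium giving 25% of maximal ATPase rate (pCa25). ADP turnover coupled via pyruvate kinase/lactate dehydrogenase to NADH oxidation, read at 340 nm. Buffer 12 mM PIPES, 2 mM MgCl2, 1 mM DTT, pH 6.8; AC1.4 values derived.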

Mean AC1.4, B (B=1-10 uM):
CC(C)(CNc1ccc(-c2cccc3c(N)n[nH]c23)nn1)c1ccc(F)cc1 [[6-(3-amino(1H-indazol-7-yl))pyridazin-3-yl][2-(4-fluorophenyl)-2-methylpropyl]amine]
NC(=O)c1cccc(-c2ccc(NCC3(c4ccc(F)cn4)CCC3)nn2)c1
CC(C)(CNc1ccc(CNS(C)(=O)=O)nn1)c1ccc(F)cc1 [[(6-{[2-(4-fluorophenyl)-2-methylpropyl]amino}pyridazin-3-yl)methyl](methylsulfonyl)amine]
Cc1nc2cc(-c3ccc(NCC(C)(C)c4ccc(F)cc4)nn3)ccc2[nH]1 [[2-(4-fluorophenyl)-2-methylpropyl][6-(2-methylbenzimidazol-5-yl)pyridazin-3-yl]amine]

Mean AC1.4, D (D=>20 uM):
CC(C)(CNc1ccc(C(=O)N2CCNC(C(N)=O)C2)nn1)c1ccc(F)cc1 (centres unmarked) [4-[(6-{[2-(4-fluorophenyl)-2-methylpropyl]amino}pyridazin-3-yl)carbonyl]piperazine-2-carboxamide]
CC(C)(C)OC(=O)N(CC(C)(C)c1ncccc1F)c1ccc(-c2cccc(C(N)=O)c2)nn1
CCOC(=O)CCc1ccc(NCC(C)(C)c2ccc(F)cc2)nn1 [ethyl 3-(6-{[2-(4-fluorophenyl)-2-methylpropyl]amino}pyridazin-3-yl)propanoate]
CC(C)(CNc1ccc(-c2ccc3[nH]nc(N)c3c2)nn1)c1ccc(C(N)=O)cc1
CC(C)(CNc1ccc(-c2ccc3c(c2)NC(=O)C3(C)C)nn1)c1ccc(F)cc1 [6-(6-{[2-(4-fluorophenyl)-2-methylpropyl]amino}pyridazin-3-yl)-3,3-dimethylindolin-2-one]
Oc1cccc(C2(CNc3ccc(-c4ccc5cn[nH]c5c4)nn3)CCC2)n1 [6-({[(6-(1H-indazol-6-yl)pyridazin-3-yl)amino]methyl}cyclobutyl) pyridin-2-ol]

Mean AC1.4, C (C=10-20 uM):
c1cnc(C2(CNc3ccc(-c4ccc5[nH]ncc5c4)nn3)CCC2)cn1 [(6-(1H-indazol-5-yl)pyridazin-3-yl)[(pyrazin-2-ylcyclobutyl)methyl]amine]

Mean AC1.4, A (A=<1 uM):
COc1ncccc1-c1ccc(NCC(C)(C)c2ccc(F)cc2)nn1 [[2-(4-fluorophenyl)-2-methylpropyl][6-(2-methoxy(3-pyridyl))pyridazin-3-yl]amine]
Nc1n[nH]c2ccc(-c3ccc(NCC4(c5ncccc5F)CCC4)nn3)cc12 [[6-(3-amino(1H-indazol-5-yl))pyridazin-3-yl]{[(3-fluoro(2-pyridyl))cyclobutyl]methyl}amine]
Fc1cccnc1C1(CNc2ccc(-c3ccccc3OC(F)(F)F)nn2)CCC1

Same assay, conditions: median AC1.4 class, procedure of Example 39

Mean AC1.4, B (B=1-10 uM):
COc1cc(-c2ccc(NCC3(c4ncccc4F)CCC3)nn2)ccc1C(N)=O
NC(=O)c1nnc(-c2ccc(NCC3(c4ncccc4F)CCC3)nn2)s1 [5-[6-({[(3-fluoro-2-pyridyl)cyclobutyl]methyl}ami-no)pyridazin-3-yl]-1,3,4-thiadiazole-2-carboxamide]
CC(C)(Nc1ccc(-c2ncc(C(N)=O)s2)nn1)c1cccc(OC(F)F)n1 [2-[6-({1-[6-(difluoromethoxy)(2-pyridyl)]-isopropyl}amino)pyridazin-3-yl]-1,3-thiazole-5-carboxamide]
NC(=O)CNCc1cnc(-c2ccc(NCC3(c4ncccc4F)CCC3)nn2)s1 [2-[({2-[6-({[(3-fluoro-2-pyridyl)cyclobutyl]methyl}ami-no)pyridazin-3-yl]-1,3-thiazol-5-yl}methyl)amino]acetamide]
NC(=O)c1c[nH]c(-c2ccc(NCC3(c4ncccc4F)CCC3)nn2)n1 [2-[6-({[(3-fluoro-2-pyridyl)cyclobutyl]methyl}ami-no)pyridazin-3-yl]imidazole-4-carboxamide]
NC(=O)Nc1ccc(-c2ccc(NC3(c4ncccc4F)CCC3)nn2)c(F)c1

Mean AC1.4, D (D=>20 uM):
Fc1cccnc1C1(CNc2ccc(-c3ccnnc3)nn2)CCC1 [{[(3-fluoro(2-pyridyl))cyclobutyl]methyl}(6-pyridazin-4-ylpyridazin-3-yl)amine]
O=C(O)C1CN=C(c2ccc(NCC3(c4ncccc4F)CCC3)nn2)N1 (centres unmarked)
NC(=O)c1cccc(-c2ccc(NCC(F)(F)c3ccccn3)nn2)c1 [3-{6-[(2,2-difluoro-2-(2-pyridyl)ethyl)amino]pyridazin-3-yl}benzamide]
FC(F)(CNc1ccc(-c2ccc3cn[nH]c3c2)nn1)c1ccccn1 [(6-(1H-indazol-6-yl)pyridazin-3-yl)(2,2-difluoro-2-(2-pyridyl)ethyl)amine]
Cn1cc(-c2ccc(NCC3(c4ncccc4F)CCC3)nn2)nc1C(N)=O
CC(C)(Nc1ccc(-c2cc(C(N)=O)ccc2F)nn1)c1cccc(=O)[nH]1

Mean AC1.4, A (A=<1 uM):
CC(C)(Nc1ccc(-c2cc(C(N)=O)ccc2F)nn1)c1ccc(F)cc1 [4-fluoro-3-(6-{[1-(4-fluorophenyl)-isopropyl]amino}pyridazin-3-yl)benzamide]
O=C(NCCO)c1cnc(-c2ccc(NCC3(c4ncccc4F)CCC3)nn2)s1 [{2-[6-({[(3-fluoro(2-pyridyl))cyclobutyl]methyl}ami-no)pyridazin-3-yl](1,3-thiazol-5-yl)}-N-(2-hydroxyethyl)carboxamide]
O=C(NCc1cnc(-c2ccc(NCC3(c4ncccc4F)CCC3)nn2)s1)c1ncn[nH]1 [1H-1,2,4-triazol-5-yl-N-({2-[6-({[(3-fluoro(2-pyridyl))cyclobutyl]methyl}ami-no)pyridazin-3-yl](1,3-thiazol-5-yl)}methyl)carboxamide]
NC(=O)c1ccc(F)c(-c2ccc(NC3(c4cccc(OC(F)F)n4)CCC3)nn2)c1
Oc1ccc(-c2ccc(NCC3(c4ncccc4F)CCC3)nn2)nc1
O=C(NCc1cnc(-c2ccc(NCC3(c4ncccc4F)CCC3)nn2)s1)[C@@H]1CC(F)(F)CN1 [((2S)-4,4-difluoropyrrolidin-2-yl)-N-({2-[6-({[(3-fluoro(2-pyridyl))cyclobutyl]methyl}ami-no)pyridazin-3-yl](1,3-thiazol-5-yl)}methyl)carboxamide]

Mean AC1.4, C (C=10-20 uM):
O=C1CN(C(=O)c2cnc(-c3ccc(NCC4(c5ncccc5F)CCC4)nn3)s2)CCN1 [4-({2-[6-({[(3-fluoro-2-pyridyl)cyclobutyl]methyl}ami-no)pyridazin-3-yl]-1,3-thiazol-5-yl}carbonyl)piperazin-2-one]

Same assay, conditions: median AC1.4 reported as class; procedure of Example 39

Mean AC1.4, A (A=<1 uM):
Nc1ccc(-c2ccc(NC[C@]3(c4ncccc4F)C[C@H](F)C3)nn2)cn1 [[6-(6-amino(3-pyridyl))pyridazin-3-yl]{[3-fluoro-1-(3-fluoro(2-pyridyl))cyclobutyl]methyl}amine]
NC(=O)Cc1cnc(-c2ccc(NCC3(c4ncccc4Cl)CCC3)nn2)s1 [2-{2-[6-({[(3-chloro-2-pyridyl)cyclobutyl]methyl}ami-no)pyridazin-3-yl]-1,3-thiazol-5-yl}acetamide]
CNC(=O)Nc1ccc(-c2ccc(NC[C@]3(c4ncccc4F)C[C@H](F)C3)nn2)c(F)c1 [N-{3-fluoro-4-[6-({[3-fluoro-1-(3-fluoro(2-pyridyl))cyclobutyl]methyl}ami-no)pyridazin-3-yl]phenyl}(methylamino)carbox-amide]

Mean AC1.4, D (D=>20 uM):
COc1ncc(-c2ccc(NCC3(c4ncccc4F)CCC3)nn2)cc1C#N [5-[6-({[(3-fluoro(2-pyridyl))cyclobutyl]methyl}ami-no)pyridazin-3-yl]-2-methoxypyridine-3-carbonitrile]
[6-({[(3-fluoro(2- pyridyl))cyclobutyl]methyl}ami- no)pyridazin-3-yl]-N-[(5- oxopyrrolidin-3- yl)methyl]carboxamide
Cn1nccc1CNC(=O)c1ccc(NCC2(c3ncccc3F)CCC2)nn1 [[6-({[(3-fluoro(2-pyridyl))cyclobutyl]methyl}ami-no)pyridazin-3-yl]-N-[(1-methylpyrazol-5-yl)methyl]carboxamide]
CC(C)(C#N)c1cnc(-c2ccc(NCC3(c4ncccc4F)CCC3)nn2)s1 [2-{2-[6-({[(3-fluoro(2-pyridyl))cyclobutyl]methyl}ami-no)pyridazin-3-yl](1,3-thiazol-5-yl)}-2-methylpropanenitrile]

Mean AC1.4, B (B=1-10 uM):
O=C1NCc2c1cccc2-c1ccc(NC[C@]2(c3ncccc3F)C[C@H](F)C2)nn1 [4-[6-({[3-fluoro-1-(3-fluoro(2-pyridyl))cyclobutyl]methyl}ami-no)pyridazin-3-yl]isoindolin-1-one]
O=C(NCC(F)(F)F)c1ccc(F)c(-c2ccc(NC[C@]3(c4ncccc4F)C[C@H](F)C3)nn2)c1 [{4-fluoro-3-[6-({[3-fluoro-1-(3-fluoro(2-pyridyl))cyclobutyl]methyl}ami-no)pyridazin-3-yl]phenyl}-N-(2,2,2-trifluoroethyl)carboxamide]

Mean AC1.4, C (C=10-20 uM):
NC(=O)c1cn[nH]c1NC(=O)c1ccc(NCC2(c3ncccc3F)CCC2)nn1 [5-{[6-({[(3-fluoro-2-pyridyl)cyclobutyl]methyl}ami-no)pyridazin-3-yl]carbonylamino}pyrazole-4-carboxamide]
COc1ncc(-c2ccc(NCC3(c4ncccc4F)CCC3)nn2)cc1C(N)=O [5-[6-({[(3-fluoro(2-pyridyl))cyclobutyl]methyl}ami-no)pyridazin-3-yl]-2-methoxypyridine-3-carboxamide]

— patent US10076519B2 (CYTOKINETICS, INC., priority 2010, dated 2018)
